Reference: patent publication US20150105252A1, “SUBSTITUTED PYRAZOLES AS HERBICIDES” (E I DU PONT DE NEMOURS AND COMPANY, priority 2013, published 2015)

Experiments:
waterhemp = test: Test C preemergence; format: in vivo, Amaranthus rudis; conditions: preemergence; for Plant response rating, Waterhemp: 125 g ai/ha, scale 0 to 100, 0 = no effect, 100 = complete control
How it was run: (§1)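 Herbicidal effect is expressed as percent visual control (0–100) judged against untreated plants 13 to 15 days after treatment in the greenhouse. Preemergence pots contained seeds in a soil–sand blend; postemergence plants, 2–18 cm tall, grew in peat-based planting medium.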

corn [1] = test: Test A preemergence; format: in vivo, Zea mays; conditions: preemergence; for Corn plant response rating (0 to 100 scale): 125 g ai/ha, visual injury approx. 10 days after treatment; for Corn plant response rating: 500 g ai/ha, visual injury after approx. 10 days, 0 to 100 scale (0 no effect, 100 complete control)
How it was run: (§2)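 Visual injury ratings, 0 = no effect to 100 = complete control, taken about 10 days after treatment against untreated controls. Test chemicals, in a non-phytotoxic surfactant-containing solvent, were sprayed onto soil preemergence or onto one- to two-leaf plants (2–10 cm) postemergence, in loam–sand soil under greenhouse conditions.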

pigweed = test: Test C preemergence; format: in vivo, Amaranthus retroflexus; conditions: preemergence; for Plant response rating, Pigweed: 125 g ai/ha, scale 0 to 100, 0 = no effect, 100 = complete control
How it was run: as §1

foxtail, giant [2] = test: Test C preemergence; format: in vivo, Setaria faberii; conditions: preemergence; for Plant response rating, Foxtail, Giant: 125 g ai/ha, scale 0 to 100, 0 = no effect, 100 = complete control
How it was run: as §1

soybean = test: Test C preemergence; format: in vivo, Glycine max; conditions: preemergence; for Plant response rating, Soybean: 125 g ai/ha, scale 0 to 100, 0 = no effect, 100 = complete control
How it was run: as §1

barnyardgrass [3] = test: Test C preemergence; format: in vivo, Echinochloa crus-galli; conditions: preemergence; for Plant response rating, Barnyardgrass: 125 g ai/ha, scale 0 to 100, 0 = no effect, 100 = complete control
How it was run: as §1

foxtail, giant [4] = test: Test A postemergence; format: in vivo, Setaria faberii
How it was run: as §2

foxtail, giant [5] = test: Test A preemergence; format: in vivo, Setaria faberii; conditions: preemergence; for Foxtail, Giant plant response rating (0 to 100 scale): 125 g ai/ha, visual injury approx. 10 days after treatment; for Foxtail, Giant plant response rating: 500 g ai/ha, visual injury after approx. 10 days, 0 to 100 scale (0 no effect, 100 complete control)
How it was run: as §2

crabgrass, large = test: Test C preemergence; format: in vivo, Digitaria sanguinalis; conditions: preemergence; for Plant response rating, Crabgrass, Large: 125 g ai/ha, scale 0 to 100, 0 = no effect, 100 = complete control
How it was run: as §1

velvetleaf = test: Test C preemergence; format: in vivo, Abutilon theophrasti; conditions: preemergence; for Plant response rating, Velvetleaf: 125 g ai/ha, scale 0 to 100, 0 = no effect, 100 = complete control
How it was run: as §1

johnsongrass = test: Test C preemergence; format: in vivo, Sorghum halepense; conditions: preemergence; for Plant response rating, Johnsongrass: 125 g ai/ha, scale 0 to 100, 0 = no effect, 100 = complete control
How it was run: as §1

wheat = test: Test A postemergence; format: in vivo, Triticum aestivum; conditions: Postemergence
How it was run: as §2

morningglory = test: Test A postemergence; format: in vivo, Ipomoea spp.; conditions: Postemergence
How it was run: as §2

barnyardgrass [6] = test: Test A preemergence; format: in vivo, Echinochloa crus-galli; conditions: preemergence; for Barnyardgrass plant response rating (0 to 100 scale, 0 is no effect, 100 is complete control): 125 g ai/ha, visual injury approx. 10 days after treatment; for Barnyardgrass plant response rating: 500 g ai/ha, visual injury after approx. 10 days, 0 to 100 scale (0 no effect, 100 complete control)
How it was run: as §2

corn [7] = test: Test C preemergence; format: in vivo, Zea mays; conditions: preemergence; for Plant response rating, Corn: 125 g ai/ha, scale 0 to 100, 0 = no effect, 100 = complete control
How it was run: as §1

[8] = 31 g ai/ha, visual rating, scale 0 to 100 (0 no effect, 100 complete control), 13 to 15 days
[9] = 62 g ai/ha, scale 0 to 100 (0 no effect, 100 complete control), 13 to 15 days
[10] = 250 g ai/ha, scale 0 to 100, 0 is no effect, 100 is complete control
[11] = Postemergence, 500 g ai/ha, 0 to 100 scale (0 no effect, 100 complete control)
[12] = postemergence, 125 g ai/ha, about 10 days, visual rating on 0 to 100 scale (0 no effect, 100 complete control)
[13] = 125 g ai/ha, 0 to 100 scale, 0 no effect, 100 complete control
[14] = 500 g ai/ha, 0 to 100 scale (0 no effect, 100 complete control)

CCOc1cc(C(=O)NC(C)C)nn1Cc1ccnc(C(F)(F)F)c1 [Compound 188]
Waterhemp plant response rating (waterhemp; [8]): 100
Waterhemp plant response rating (waterhemp; [9]): 100
Plant response rating, Waterhemp (waterhemp; 13 to 15 days): 100
Waterhemp plant response rating (waterhemp; [10]): 100
Corn plant response rating (0 to 100 scale) (corn [1]): 100
Corn plant response rating (corn [1]): 100
Pigweed plant response rating (pigweed; [8]): 100
Pigweed plant response rating (pigweed; [9]): 100
Plant response rating, Pigweed (pigweed; 13 to 15 days): 100
Pigweed plant response rating (pigweed; [10]): 100
Foxtail, Giant plant response rating (foxtail, giant [2]; [8]): 100
Foxtail, Giant plant response rating (foxtail, giant [2]; [9]): 100
Plant response rating, Foxtail, Giant (foxtail, giant [2]; 13 to 15 days): 100
Foxtail, Giant plant response rating (foxtail, giant [2]; [10]): 100
Soybean plant response rating (soybean; [8]): 90
Soybean plant response rating (soybean; [9]): 90
Plant response rating, Soybean (soybean; 13 to 15 days): 95
Soybean plant response rating (soybean; [10]): 98
Barnyardgrass plant response rating (barnyardgrass [3]; [8]): 100
Barnyardgrass plant response rating (barnyardgrass [3]; [9]): 100
Plant response rating, Barnyardgrass (barnyardgrass [3]; 13 to 15 days): 100
Barnyardgrass plant response rating (barnyardgrass [3]; [10]): 100
Foxtail, Giant plant response rating (foxtail, giant [4]; [11]): 90
Foxtail, Giant plant response rating (foxtail, giant [4]; [12]): 90
Foxtail, Giant plant response rating (0 to 100 scale) (foxtail, giant [5]): 100
Foxtail, Giant plant response rating (foxtail, giant [5]): 100
Crabgrass, Large plant response rating (crabgrass, large; [8]): 100
Crabgrass, Large plant response rating (crabgrass, large; [9]): 100
Plant response rating, Crabgrass, Large (crabgrass, large; 13 to 15 days): 100
Crabgrass, Large plant response rating (crabgrass, large; [10]): 100
Velvetleaf plant response rating (velvetleaf; [8]): 100
Velvetleaf plant response rating (velvetleaf; [9]): 100
Plant response rating, Velvetleaf (velvetleaf; 13 to 15 days): 100
Velvetleaf plant response rating (velvetleaf; [10]): 100
Johnsongrass plant response rating (johnsongrass; [8]): 80
Johnsongrass plant response rating (johnsongrass; [9]): 98
Plant response rating, Johnsongrass (johnsongrass; 13 to 15 days): 100
Johnsongrass plant response rating (johnsongrass; [10]): 100
Wheat plant response rating (wheat; [13]): 80
Wheat plant response rating (wheat; [14]): 90
Morningglory plant response rating (morningglory; [13]): 70
Morningglory plant response rating (morningglory; [14]): 100
Barnyardgrass plant response rating (0 to 100 scale, 0 is no effect, 100 is complete control) (barnyardgrass [6]): 100
Barnyardgrass plant response rating (barnyardgrass [6]): 100
Corn plant response rating (corn [7]; [8]): 55
Corn plant response rating (corn [7]; [9]): 85
Plant response rating, Corn (corn [7]; 13 to 15 days): 98
Corn plant response rating (corn [7]; [10]): 98

CCOc1cc(C(=O)NC2CC2)nn1Cc1ccnc(C(F)(F)F)c1 [Compound 189]
Waterhemp plant response rating (waterhemp; [8]): 100
Waterhemp plant response rating (waterhemp; [9]): 100
Plant response rating, Waterhemp (waterhemp; 13 to 15 days): 100
Waterhemp plant response rating (waterhemp; [10]): 100
Corn plant response rating (0 to 100 scale) (corn [1]): 80
Corn plant response rating (corn [1]): 100
Pigweed plant response rating (pigweed; [8]): 100
Pigweed plant response rating (pigweed; [9]): 100
Plant response rating, Pigweed (pigweed; 13 to 15 days): 100
Pigweed plant response rating (pigweed; [10]): 100
Foxtail, Giant plant response rating (foxtail, giant [2]; [8]): 100
Foxtail, Giant plant response rating (foxtail, giant [2]; [9]): 100
Plant response rating, Foxtail, Giant (foxtail, giant [2]; 13 to 15 days): 100
Foxtail, Giant plant response rating (foxtail, giant [2]; [10]): 100
Soybean plant response rating (soybean; [8]): 20
Soybean plant response rating (soybean; [9]): 95
Plant response rating, Soybean (soybean; 13 to 15 days): 98
Soybean plant response rating (soybean; [10]): 98
Barnyardgrass plant response rating (barnyardgrass [3]; [8]): 95
Barnyardgrass plant response rating (barnyardgrass [3]; [9]): 100
Plant response rating, Barnyardgrass (barnyardgrass [3]; 13 to 15 days): 100
Barnyardgrass plant response rating (barnyardgrass [3]; [10]): 100
Foxtail, Giant plant response rating (foxtail, giant [4]; [11]): 90
Foxtail, Giant plant response rating (foxtail, giant [4]; [12]): 90
Foxtail, Giant plant response rating (0 to 100 scale) (foxtail, giant [5]): 100
Foxtail, Giant plant response rating (foxtail, giant [5]): 100
Crabgrass, Large plant response rating (crabgrass, large; [8]): 100
Crabgrass, Large plant response rating (crabgrass, large; [9]): 100
Plant response rating, Crabgrass, Large (crabgrass, large; 13 to 15 days): 100
Crabgrass, Large plant response rating (crabgrass, large; [10]): 100
Velvetleaf plant response rating (velvetleaf; [8]): 98
Velvetleaf plant response rating (velvetleaf; [9]): 100
Plant response rating, Velvetleaf (velvetleaf; 13 to 15 days): 100
Velvetleaf plant response rating (velvetleaf; [10]): 100
Johnsongrass plant response rating (johnsongrass; [8]): 65
Johnsongrass plant response rating (johnsongrass; [9]): 98
Plant response rating, Johnsongrass (johnsongrass; 13 to 15 days): 100
Johnsongrass plant response rating (johnsongrass; [10]): 100
Wheat plant response rating (wheat; [13]): 80
Wheat plant response rating (wheat; [14]): 90
Morningglory plant response rating (morningglory; [13]): 90
Morningglory plant response rating (morningglory; [14]): 100
Barnyardgrass plant response rating (0 to 100 scale, 0 is no effect, 100 is complete control) (barnyardgrass [6]): 90
Barnyardgrass plant response rating (barnyardgrass [6]): 100
Corn plant response rating (corn [7]; [8]): 5
Corn plant response rating (corn [7]; [9]): 40
Plant response rating, Corn (corn [7]; 13 to 15 days): 85
Corn plant response rating (corn [7]; [10]): 98
